PMC6470953, “Symmetrical Modification of Minimized Dermaseptins to Extend the Spectrum of Antimicrobials with Endotoxin Neutralization Potency” (International Journal of Molecular Sciences, 2019)
Where no end group is shown, it is not given here.

How the values were obtained:
[1] = system: E. coli ATCC25922; test: MIC assay, E. coli ATCC25922; type: cell-based; settings: two-fold dilution in 96-well plates, MHB, 2-7 × 10^5 CFU/mL, 18–24 h, 37 °C, three replicates on at least two occasions
Procedure: (§1) MIC measurements were performed in 96-well plates. The peptides were dissolved in 0.2% bovine serum albumin and 0.01% acetic acid, and an appropriate broth was subjected to a series of two-fold dilutions. The final concentration of microbial suspensions was from 2 × 10^5 to 7 × 10^5 colony forming units (CFU)∙mL^−1. Key parameters were volume (50 μL bacterial suspension + 50 μL peptide solution), incubating time (18–24 h), and temperature (37 °C). Each test was performed in three replicates on at least two independent occasions. The Mueller Hilton broth (MHB) (AoBoX, Shanghai, China) without or with microbial cells was regarded as the negative control or positive control, respectively. MICs were recorded at the lowest peptide concentration without visible turbidity and spectrophotometrically by measuring the optical density (OD) at 492 nm (Tecan, Salzburg, Austria).

[2] = system: E. coli UB1005; test: MIC assay, E. coli UB1005; type: cell-based; settings: two-fold dilution in 96-well plates, MHB, 2-7 × 10^5 CFU/mL, 18–24 h, 37 °C
Procedure: as §1

[3] = system: P. aeruginosa ATCC 27853; test: MIC assay, P. aeruginosa ATCC 27853; type: cell-based; settings: two-fold dilution in 96-well plates, MHB, 2-7 × 10^5 CFU/mL, 18–24 h, 37 °C
Procedure: as §1

[4] = system: S. typhimurium ATCC 14028; test: MIC assay, S. typhimurium ATCC 14028; type: cell-based; settings: two-fold dilution in 96-well plates, MHB, 2-7 × 10^5 CFU/mL, 18–24 h, 37 °C
Procedure: as §1

[5] = system: S. pullorum C79-13; test: MIC assay, S. pullorum C79-13; type: cell-based; settings: two-fold dilution in 96-well plates, MHB, 2-7 × 10^5 CFU/mL, 18–24 h, 37 °C
Procedure: as §1

[6] = system: S. aureus ATCC 29213; test: MIC assay, S. aureus ATCC 29213; type: cell-based; settings: two-fold dilution in 96-well plates, MHB, 2-7 × 10^5 CFU/mL, 18–24 h, 37 °C
Procedure: as §1

[7] = system: S. epidermidis ATCC 12228; test: MIC assay, S. epidermidis ATCC 12228; type: cell-based; settings: two-fold dilution in 96-well plates, MHB, 2-7 × 10^5 CFU/mL, 18–24 h, 37 °C
Procedure: as §1

[8] = system: S. faecalis ATCC 29212; test: MIC assay, S. faecalis ATCC 29212; type: cell-based; settings: two-fold dilution in 96-well plates, MHB, 2-7 × 10^5 CFU/mL, 18–24 h, 37 °C
Procedure: as §1

[9] = system: B. subtilis CMCC 63501; test: MIC assay, B. subtilis CMCC 63501; type: cell-based; settings: two-fold dilution in 96-well plates, MHB, 2-7 × 10^5 CFU/mL, 18–24 h, 37 °C
Procedure: as §1

[10] = system: human red blood cells (hRBCs); test: Hemolytic activity assay; type: cell-based; settings: lowest peptide concentration that induces 5% hemolysis; hRBCs in PBS pH 7.4, 1 h, 37 °C, OD570
Procedure: Hemolytic activity measurements were performed to evaluate the effect of peptides on hemoglobin release levels by erythrocyte lysis. The experimental protocol was reviewed and approved by the ethics committee of the Northeast Agricultural University Hospital, and the experimental method was carried out in accordance with the approved guidelines and regulations. A total of 1 mL of fresh hRBCs was collected and diluted 10-fold with PBS (pH 7.4). A quantity of 50 μL of the hRBCs solution was incubated with 50 μL of serially diluted peptides dissolved in PBS for 1 h at 37 °C. hRBC suspension treated with 0.1% Triton X-100 was employed as a positive control and an untreated hRBC suspension was used as a negative control. A total of 50 μL of the supernatant was collected from the mixture after centrifugation (1000g, 5 min, 4 °C) and transferred to a new 96-well microplate. The percent hemolysis was calculated using the following equation: Hemolysis (%) = [(OD570 of the treated sample — OD570 of the negative control)/(OD570 of the positive control — OD570 of the negative control)] × 100%.

[11] = system: murine macrophage cell line (RAW264.7); test: MTT cytotoxicity assay, RAW264.7; type: cell-based; settings: RAW264.7, peptide 64 μM, 18–24 h, 37 °C, OD 570 nm, n = 3
Procedure: (§2) The Roswell Park Memorial Institute-1640 (RPMI-1640) (Invitrogen, Carlsbad, CA, USA) and Dulbecco’s modified Eagle’s medium-high glucose (DMEM) (Gibco, China) were supplemented with 100 μg∙mL^−1 streptomycin sulfate, 100 U∙mL^−1 penicillin, and 10% (v/v) fetal bovine serum (Hyclone, Logan, UT, USA). These were used to culture the RAW264.7 and HEK293T cells, respectively. The peptides were added to cell cultures (1.0–2.0 × 10^4 cells/well) at different final concentrations (1–64 µM) in 96-well plates for 18–24 h at 37 °C in 5% CO2, and 3-(4,5-dimethylthiazol-2-yl)-2,5-diphenyltetrazolium bromide (MTT) (50 µL, 0.5 mg∙mL^−1) was injected and incubated with cell cultures for 4 h at 37 °C. Finally, the centrifuged cells without the supernatants were mixed with 150 µL of dimethyl sulfoxide to dissolve the formazan crystals that formed. The optical density (OD) was recorded by a microplate reader (Tecan, Salzburg, Austria) at 570 nm.

[12] = system: human embryonic kidney cells (HEK293T); test: MTT cytotoxicity assay, HEK293T; type: cell-based; settings: peptide 64 μM, 18–24 h, 37 °C, OD 570 nm, n = 3
Procedure: as §2

[13] = system: Gram-negative and Gram-positive bacteria; test: Geometric mean of MIC values over the bacteria tested; type: cell-based; settings: MIC >128 μM counted as 256 μM
Procedure: as §1

[14] = system: E. coli ATCC 25922; test: FACScan membrane integrity analysis (propidium iodide); type: cell-based; settings: E. coli ATCC 25922, 10 μg/mL PI, 4 °C, 30 min, flow cytometry
Procedure: The membrane integrity measurements were performed with a FACScan instrument (Bectone-Dickinson, San Jose, CA, USA) by using a modified method as described previously. […] As a control, bacteria were exposed to PBS without the peptide. The gate (P1) was defined based on the FSC and SSC properties of E. coli. The FSC threshold was appropriately raised to include the large cell events in the sample and excluded the debris population. Data acquisition was performed using […] Software (Becton Dickinson, San Jose, CA, USA) with a stopping gate of 10,000 total events. Observations were repeated three times at a laser excitation wavelength of 488 nm. Based on the ability of flow cytometers to provide accurate quantification of cell numbers, the counts of PI-positive cells were measured for each peptide.

[15] = LPS binding, BODIPY-TR cadaverine displacement assay; design: species or system E. coli; settings: LPS 100 ng/mL, peptide 1.25–40 μg/mL, 1 h, 37 °C, Tris pH 7.4
Procedure: BODIPY-TR-cadaverine fluorescent dye (BC, Sigma, USA) was used to determine the LPS neutralizing activity of the peptides. A total of 100 ng/mL LPS from E. coli O111:B4 was incubated with 5 μg/mL BC in Tris buffer (50 mM, pH 7.4) for 4 h at room temperature. The peptides were serially diluted to different concentrations (1.25–40 μg/mL) in a 96-well plate and incubated with an equal volume of the LPS-probe mixture for 1 h at 37 °C. The fluorescence was recorded (excitation λ = 580 nm, emission λ = 620 nm) with a spectrofluorophotometer (the Infinite 200 pro, Tecan, China). The values were converted to %ΔF (AU) using the following equation:%ΔF (AU) = (Fobs − F0) / (F100 − F0) × 100 where F0 is the initial fluorescence of BC with LPS; F100 is the BC fluorescence with LPS cells upon the addition of 10 μg∙mL^−1 polymyxin B (the positive control); and Fobs is the observed fluorescence at a given peptide concentration.

[16] = system: interleukin-6(IL-6); test: LPS-induced IL-6 gene expression (qRT-PCR) in RAW264.7; type: cell-based, murine; settings: RAW264.7, 100 ng/mL LPS, peptide 10 μg/mL, n = 3
Procedure: (§3) The RAW264.7 cell culture was prepared using the same method as the cytotoxicity assay. The cells were seeded in 12 wells plates at a given density (5 × 10^5 cells per well); after overnight culture, 100 ng·mL^−1 LPS from E. coli 0111:B4 was added to stimulate the generation of cytokines in the presence or absence of the peptides at concentrations of 10 μg·mL^−1. The mRNA levels of IL-6 and IL-1β were determined by quantitative real-time PCR(qRT-PCR) as previously described. The total RNA was isolated from the RAW264.7 cells using TRIzol according to the manufacturer’s instructions. Total RNA (1 µg) was reverse transcribed by the M-MLV Reverse Transcriptase (Thermo scientific, Waltham, MA, USA). The reactions were incubated in chronological arrangement with the following parameters: at 25 °C for 20 min, at 42 °C for 60 min, and at 70 °C for 10 min. The obtained cDNA samples were determined by qRT-PCR with SYBR green I fluorescence dye (Takara Bio Inc., Kusatsu, Japan). Relative quantifications of the mRNA expression of the target genes were calculated through the comparative threshold cycle number for each sample (2^−ΔΔCT). Gene expression was normalized to the corresponding β-actin level. The primers for qRT-PCR in this study are shown below: IL-6-F: […]; IL-6-R: […]; IL-1β-F: […]; and IL-1β-R: […].

[17] = system: interleukin-1β(IL-1β); test: LPS-induced IL-1β gene expression (qRT-PCR) in RAW264.7; type: cell-based, murine; settings: RAW264.7, 100 ng/mL LPS, peptide 10 μg/mL, n = 3
Procedure: as §3

WWKAAAKAAAKWW-NH2 [WW]
MIC [1]: 2 µM
MIC [2]: 4 µM
MIC [3]: 8 µM
MIC [4]: 8 µM
MIC [5]: 2 µM
MIC [6]: 4 µM
MIC [7]: 4 µM
MIC [8]: 4 µM
MIC [9]: 4 µM
MHC5 (minimum hemolysis concentration 5%) [10]: 256 µM
cell survival rate [11]: 63%
cell survival rate [12]: 43%

WFKAAAKAAAKFW-NH2 [WF]
MIC [1]: 4 µM
MIC [2]: 4 µM
MIC [3]: 16 µM
MIC [4]: 32 µM
MIC [5]: 8 µM
MIC [6]: 8 µM
MIC [7]: 16 µM
MIC [8]: 32 µM
MIC [9]: 8 µM
MHC5 (minimum hemolysis concentration 5%) [10]: 256 µM
cell survival rate [11]: 92%
cell survival rate [12]: 91%

CC[C@H](C)[C@H](NC(=O)CN)C(=O)NCC(=O)N[C@@H](C)C(=O)N[C@H](C(=O)N[C@@H](CC(C)C)C(=O)N[C@@H](CCCCN)C(=O)N[C@H](C(=O)N[C@@H](CC(C)C)C(=O)N[C@H](C(=O)N[C@H](C(=O)NCC(=O)N[C@@H](CC(C)C)C(=O)N1CCC[C@H]1C(=O)N[C@@H](C)C(=O)N[C@@H](CC(C)C)C(=O)N[C@H](C(=O)N[C@@H](CO)C(=O)N[C@@H](Cc1c[nH]c2ccccc12)C(=O)N[C@H](C(=O)N[C@@H](CCCCN)C(=O)N[C@@H](CCCNC(=N)N)C(=O)N[C@@H](CCCCN)C(=O)N[C@@H](CCCNC(=N)N)C(=O)N[C@@H](CCC(N)=O)C(=O)N[C@@H](CCC(N)=O)C(N)=O)[C@@H](C)CC)[C@@H](C)CC)[C@@H](C)O)[C@@H](C)O)C(C)C)C(C)C [Melittin]
GM (geometric mean of MIC values) [13]: 1.3 µM
percentage of PI-positive cells ([14]; 1/2 × MIC): 50.5%
percentage of PI-positive cells ([14]; 1 × MIC): 77.5%
binding to LPS, %ΔF (AU) of BODIPY-TR cadaverine [15]: concentration-dependent increase
gene expression of IL-6 in LPS-treated cells [16]: markedly decreased
gene expression of IL-1β in LPS-treated cells [17]: markedly decreased
